Each structure is given as a SMILES string.

GI50 data for one compound are collected here from PMC11078746 (Nature, 2024).

Assay [1] has as its system SNUC4. The assay is described as follows: 4 day proliferation assay (CellTiter-Glo). To be noted: Homo sapiens, SNU-C4, 96 h, read-out: 4 day assay GI50.
In assay [2] the test system is JHUEM2. The assay is described as follows: CFA 10-14 day clonogenic assay. In kind it is cell-based. To be noted: Homo sapiens.

With `CCc1c(N2CCN(C(=O)c3ncnc(C)c3O)CC2)c(=O)n2nc(C3=CCOCC3)nc2n1CC(=O)Nc1ccc(C(F)(F)F)cc1Cl` [HRO761], the results for the GI50 in assay [1] and in assay [2] were 0.145 µM and 0.929 µM, respectively.

As a reminder, the GI50 is the concentration at which growth is held to half of that of the control.
